# According to article PMC8546421, “Molecular modelling of the FOXO4-TP53 interaction to design senolytic peptides for the elimination of senescent cancer cells” (EBioMedicine, 2021):
# Entries after “also recorded” stand apart in the source; their conditions may differ. Where no end group is shown, it is not given here.
# Assays:
# senescent A375 cells = assay: Peptide efficacy in culture (MTS), senescent cells; assay type: cell-based, human
# Protocol: Cell lines were treated with chemotherapy, doxorubicin (Sigma, Cat. No. 2252) to induce senescence (200 nM for HCT116, 100 nM for B16-F10 and MCF7, 50 nM for SW480 and DLD-1, 40 nM for A375-Luc/iRFP and MCF10a). MCF7 cells were treated with CDK4/6 inhibitor, palbociclib (Selleck Chemicals: S1116) to induce senescence (5 µM). A375 cells were treated with Braf inhibitor, Dabrafenib (Selleck Chemicals: S2807), to induce senescence (10 µM). Peptide efficacy experiments were performed by seeding 10,000 – 20,000 cells in a 96-well plate. The cells were given doxorubicin twice to make the cells senescent. After removal of doxorubicin, the plate was treated with varying concentrations of peptide. The peptide was replenished daily for two days. Cellular proliferation was quantified using the Promega CellTiter 96™ AQueous One Solution Cell Proliferation Assay (MTS) after 2 hours according to the manufacturer's protocol (Promega, G3581). To control for the charge of ES2, ProteoJuice (Millipore Sigma, 71281) was used to deliver ES2 using the manufacturers protocol, except 50 µL of 2 mM ES2 was mixed with 25 µL of ProteoJuice. Varying concentrations of the mixture were administered to A375 cells along with a control of only ProteoJuice.
# [1] = test system: senescent cells in the liver; assay: Systemic delivery to aged mice, liver SA-β-gal; assay type: in vivo, mouse; conditions: aged mice (82 weeks), 3 mg ES2 via tail vein weekly for three weeks, n=5, p=0.03
# Protocol: Senescent and dividing cells or tissue sections were fixed with 4% formaldehyde. The cells were washed with PBS twice before staining with X-gal solution [1 mg/mL 5-bromo-4-chloro-3inolyl-β-D-galactoside (Boehringer Manneheim #745-740) in N,N-dimethylformamide, 5 mM potassium ferricyanide crystalline (#P-8131), 5 mM potassium […] (#P-3289), 2 mM magnesium chloride, and 1x PBS, pH 6.0. Cells or tissue sections were incubated at 37°C for 24 hours. After staining, cells were washed with PBS before being counted and imaged on the Leica Dmi8 microscope.
# Mice were aged between 3-8 months and 20-30 g in weight and were housed in specific pathogen free cages. Animals were randomly distributed among treatment groups by assigning mice within the same cage to different treatment regimens. To minimise confounders, mouse treatment order was randomised within each cage. Male and female mice were distributed between all treatment groups since the chemicals used were directly injected and are not metabolized. Researchers were not blinded to the group allocation, but all attempts were made to analyse the data without knowing treatment conditions. […] Mice were then monitored daily and allowed to age until a humane endpoint was reached according to our IACUC protocol, which in this case was tumours of 2 cm in size. […]
sequence,measurement,setting,value
PRKGGRRRRAWGRRRRRRRRRRRRRRAPRKRLTLA [ES2],cell death,"senescent A375 cells; A375 cells, ProteoJuice control experiment, highest concentration",80%
same,effect of delivery with ProteoJuice on senolytic activity,"senescent A375 cells; ES2 delivered with ProteoJuice vs ES2 alone, senescent A375 cells, n=5",had no effect on viability in senescent cells compared to ES2 alone; also recorded: no difference in senolytic activity
same,IC50,"senescent A375 cells; doxorubicin (40 nM)-induced senescent A375 cells, peptide replenished daily for two days, MTS, best fit polynomial, read-out: IC50^sen, concentration to kill 50% of senescent cells",~7 µM
same,senolytic activity (in words),senescent A375 cells; senescent vs dividing A375 cells,highest senolytic activity
same,number of senescent cells in the liver (SA-β-gal activity),[1],reduced the number of senescent cells in the liver by half
